Results taken from ChEMBL document CHEMBL3886479, “1-H-pyrrolo[2,3-b]pyridine derivatives” (2016).

Target: T1, 3-phosphoinositide-dependent protein kinase 1 (Homo sapiens, UniProt O15530)
T1 sequence (O15530 whole entry): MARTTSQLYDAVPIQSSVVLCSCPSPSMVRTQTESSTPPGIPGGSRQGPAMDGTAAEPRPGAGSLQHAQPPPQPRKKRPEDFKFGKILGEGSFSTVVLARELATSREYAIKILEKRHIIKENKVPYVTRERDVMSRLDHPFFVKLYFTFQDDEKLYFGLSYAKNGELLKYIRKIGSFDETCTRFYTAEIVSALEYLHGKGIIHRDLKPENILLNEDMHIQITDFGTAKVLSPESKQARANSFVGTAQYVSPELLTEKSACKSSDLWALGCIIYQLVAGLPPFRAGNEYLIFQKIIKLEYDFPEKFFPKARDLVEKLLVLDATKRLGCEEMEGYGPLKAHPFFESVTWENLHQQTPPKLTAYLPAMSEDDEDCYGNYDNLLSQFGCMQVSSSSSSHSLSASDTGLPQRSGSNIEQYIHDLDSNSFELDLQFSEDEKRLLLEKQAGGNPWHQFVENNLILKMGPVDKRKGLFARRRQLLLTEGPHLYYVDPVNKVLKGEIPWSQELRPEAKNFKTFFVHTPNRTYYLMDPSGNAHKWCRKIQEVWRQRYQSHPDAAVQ
Assay: Luminex Assay: The cellular assay for the determination of the PDK1 kinase activity is carried out as a Luminex assay in the 96-well format. PC3 cells are sown at 20,000 cells per well in 100 ul of medium (45% of […]/45% of Ham's F12/10% of FCS) and incubated on the following day for 30 min with a serial dilution of the test substance (7 concentrations) under serum-free conditions. The cells are subsequently lysed using 90 ul of lysis buffer (20 mM tris/HCl pH 8.0, 150 mM NaCl, 1% of NP40, 10% of glycerol, 1% of phosphatase inhibitor I, 1% of phosphatase inhibitor II, 0.1% of protease inhibitor cocktail III, 0.01% of benzonase) per well, and the lysates are separated off from insoluble cell constituents by means of centrifugation through a 96-well filter plate (0.65 um). The lysates are incubated overnight at 4° C. with shaking with Luminex beads to which an anti-total PKB antibody is coupled. The detection is carried out on the following day by addition of a phospho-T308-PKB antibody and a species-specific peroxidase-labelled secondary antibody.
Assay type: cell-based
Details: pc-3

SMILES: Cn1cc(-c2cnc3[nH]cc(-c4cc(N(CCC#N)c5ccccc5)nc(N)n4)c3c2)cn1
- IC50: 7.1 nM
